Here are results for 2 compounds from US10316050B2, “PT (IV) complexes containing 4,4′-disubstituted-2,2′-bipyridyl and their use in cancer therapy” (THE BOARD OF REGENTS OF THE NEVADA SYSTEM OF HIGHER …, priority 2014, dated 2019).

One data set relates to DU145 cells. Nature of the data set: Hoechst/PI staining, confocal microscopy, DU145. It is filed as cell-based, human. The procedure: (§1) Cells (100,000 to 125,000) were seeded into 35 mm dishes and incubated for 48 hours at 37° C. The cells were treated with control, Pt(IV)-4C, or Pt(IV)-5C, and while in the dark, the cells were washed 2× with 1 mL PBS. After washing, 1 mL of a 2 μg/mL Hoechst 33342 and 10 μg/mL PI solution (in PBS) was added, and the cells were incubated for 15 minutes at room temperature. Images were acquired within 5 minutes with a Nikon A1R confocal laser scanning microscopy system (CLSM) mounted on a Nikon Eclipse Ti. At least three random areas on each dish were imaged.
(§2) Analysis of Hoechst (Ho) and PI staining by confocal microscopy also was performed to detect cell death. PI stains cells with membrane damage, whereas Ho stains both live and apoptotic cells (although apoptotic cells have more intense Ho fluorescence). […] Additionally, unlike A549, the PI positive cells in Pt(IV)-4C treated cells were higher than Pt(IV)-5C treated cells.

The subject of the next data set is A549 cells. Nature of the data set: Hoechst/PI staining, confocal microscopy, A549. The class given is cell-based, human. On the procedure:
as §1, §2

Data set [1] is described as follows: Solubility in water and culture medium. It is filed as physicochemical. As to conditions: stock DMSO solution diluted in the culture medium. The procedure:
It should be noted that while the solubility of the Pt(IV) complexes in organic solvents were increased compared to their Pt(II) precursors, they were still poorly soluble in water. Thus, Pt(IV)-1C to Pt(IV)-3C were limited to a highest concentration of 100 μM. […] Testing of Pt(IV)4C therefore was limited to 25 μM.

For `CC(=O)[O][Pt]([Cl])([Cl])[O]C(C)=O.CCCCCOc1ccnc(-c2cc(OCCCCC)ccn2)c1` [Pt(IV)-5C, [Pt(IV)Cl2(OAc)2(4,4′-dipentoxy-2,2′-bipyridine)]], the “Hoechst and PI staining compared to control” value in the data set with DU145 cells is “more PI positive staining than Ho staining”. Besides, in the data set on A549 cells, the “Hoechst (Ho) fluorescence compared to control” value is reported as “increased Ho fluorescence” and the “PI fluorescence compared to control” value was “no difference”.

As to “[Pt(IV)Cl2(OAc)2(4,4′-dibutoxy-2,2′-bipyridine)] [Pt(IV)-4C]”, in the data set on A549 cells, the “Hoechst (Ho) fluorescence compared to control” value is listed as “increased Ho fluorescence” and the “PI fluorescence compared to control” value is given as “increased PI positive cells”. Also, in data set [1], the “concentration at which the complex precipitated out of solution” value was at least 30 µM.
